Data as given in patent publication US20260062422A1 (Halda Therapeutics OpCo, Inc., priority 2022, published 2026).

What was measured:
[1] = tested on: T-Rex 293 cell line SC3 cells lacking increased expression of androgen receptor protein; assay: Cellular growth inhibition, T-Rex 293 SC3 cells without doxycycline, CellTiter-Glo; type: cell-based; conditions: T-Rex 293 SC3 cells not exposed to doxycycline, CellTiter-Glo 2.0
Experimental: (§1) The following types of cells were prepared for this experiment: (i) a T-Rex 293 cell line having increased expression of androgen receptor protein due to exposure to doxycycline and (ii) a T-Rex 293 cell line lacking increased expression of androgen receptor protein. Ability of the test compounds to inhibit proliferation of the foregoing cell types was evaluated according to the procedures set forth below.
(§2) The doxycycline-inducible androgen receptor protein expressing cell line was established using the following protocol: T-Rex 293 cells were purchased from Invitrogen (Cat #R71007) and transfected using Lipofectamine 2000 with the wild-type androgen receptor protein sequence cloned into the pcDNA4/TO vector. Transfected cells were selected using 400 μg/mL Zeocin (Invitrogen Cat #R25001). Following selection, single clones were raised and maintained in Dulbecco's Modified Eagle Medium (DMEM) supplemented with 10% w/w Tetracycline-free fetal bovine serum (FBS) and 250 μg/mL Zeocin. Clones were analyzed for expression of androgen receptor protein in the presence and absence of 10 ng/mL doxycycline (Sigma Cat #D9891), and a single doxycycline-inducible clone (hereinafter “SC3”) was selected for use in downstream assays.
(§3) The SC3 cells were seeded on poly-D-lysine coated, black clear-bottom 384-well plates at 2500/well, in 25 μL Phenol Red Free Dulbecco's Modified Eagle Medium (DMEM) supplemented with 10% w/w charcoal-dextran treated fetal bovine serum (FBS) and 1% w/w pen-strep, with or without 10 ng/mL doxycycline. Pen-Strep is a commercially available mixture of penicillin G and streptomycin, which is used in mammalian cell culture media to prevent bacterial contamination. Phenol Red Free Dulbecco's Modified Eagle Medium (DMEM) supplemented with 10% w/w charcoal-dextran treated fetal bovine serum (FBS) and 1% w/w pen-strep, with or without 10 ng/mL doxycycline is herein referred to as Treatment Medium. Following seeding of cells in the plates, the plates were spun at 300×g for 30 seconds, then equilibrated to room temperature for 30 minutes, and then deposited in a humidified tissue culture incubator maintained at 37° C. with 5% CO2.
(§4) At 24 hours after seeding of the cells, dilutions of test compound were prepared in DMSO and dissolved in Treatment Medium, to achieve a final DMSO concentration of 0.5% w/w, thereby providing the Test Compound Solution. A 25 μL aliquot of the Test Compound Solution was added to cells in the well plates. An equal volume of a solution containing DMSO and Treatment Medium was used as a negative control. Following treatment of cells with Test Compound Solution or said equal volume of a solution containing DMSO and Treatment Medium, the plates were spun at 300×g for 30 seconds, and then left in an incubator for 72 hours. At the end of the treatment duration, cell viability was quantified with CellTiter-Glo 2.0 reagent (Promega Cat #G9243). For this purpose, plates were equilibrated to room temperature for 30 minutes, and then 25 μL of CellTiter-Glo 2.0 reagent was added to cells in the plate wells. Plates were then agitated on a shaker for two minutes at 500 rpm and subsequently incubated at room temperature for 10 minutes. Following incubation, the plates were spun at 3000×g for 30 seconds, then sealed with an optical adhesive cover, and luminescence readings were measured with an EnVision Plate Reader. Data was normalized using zero luminescence for baseline. A four-parameter non-linear regression curve fit was applied to dose-response data in GraphPad Prism data analysis software to determine the half-maximal growth inhibitory concentration (GI50) for each test compound.

[2] = tested on: VCaP cells; assay: Cellular growth inhibition assay for VCaP cells, CellTiter-Glo; type: cell-based, human; conditions: 72 hours treatment, CellTiter-Glo 2.0
Experimental: VCaP cells were purchased from American Type Cell Culture (ATCC Cat #CRL2876) and then seeded on poly-D-lysine coated, black clear-bottom 384-well plates at 5000/well in 25 μL Dulbecco's Modified Eagle Medium (DMEM) supplemented with 10% w/w Fetal bovine serum (FBS) and 1% w/w Pen-Strep. Pen-Strep is a commercially available mixture of penicillin G and streptomycin, which is used in mammalian cell culture media to prevent bacterial contamination. Dulbecco's Modified Eagle Medium (DMEM) supplemented with 10% w/w fetal bovine serum (FBS) and 1% w/w Pen-Strep is herein referred to as Treatment Medium. Following seeding of cells in the plates, the plates were spun at 300×g for 30 seconds, then equilibrated to room temperature for 30 minutes, and then deposited in a humidified tissue culture incubator maintained at 37° C. with 5% CO2.
At 24 hours after seeding of the cells, dilutions of test compound were prepared in DMSO and dissolved in Treatment Medium, to achieve a final DMSO concentration of 0.5% w/w, thereby providing the Test Compound Solution. A 25 μL aliquot of the Test Compound Solution was added to cells in the well plates. An equal volume of a solution containing DMSO and Treatment Medium was used as a negative control. Following treatment of cells with Test Compound Solution or said equal volume of a solution containing DMSO and Treatment Medium, the plates were spun at 300×g for 30 seconds, and then left in an incubator for 72 hours.
At the end of the treatment duration, cell viability was quantified with CellTiter-Glo 2.0 reagent (Promega Cat #G9243). For this purpose, plates were equilibrated to room temperature for 30 minutes, and then 25 μL of CellTiter-Glo 2.0 reagent was added to cells in the plate wells. Plates were then agitated on a shaker for two minutes at 500 rpm and subsequently incubated at room temperature for 10 minutes. Following incubation, the plates were spun at 3000×g for 30 seconds, then sealed with an optical adhesive cover, and luminescence readings were measured with an EnVision Plate Reader.
Data was normalized using zero luminescence for baseline. A four-parameter non-linear regression curve fit was applied to dose-response data in GraphPad Prism data analysis software to determine the half-maximal growth inhibitory concentration (GI50) for each test compound.

[3] = tested on: T-Rex 293 cell line SC3 cells having increased expression of androgen receptor protein due to exposure to doxycycline; assay: Cellular growth inhibition, T-Rex 293 SC3 cells with doxycycline (androgen receptor induced), CellTiter-Glo; type: cell-based; conditions: T-Rex 293 SC3 cells with 10 ng/mL doxycycline (increased androgen receptor expression)
Experimental: as §1, §2, §3, §4

[4] = tested on: T47D cells; assay: Cellular growth inhibition assay for T47D cells, CellTiter-Glo; type: cell-based, human; conditions: 72 hours treatment, CellTiter-Glo 2.0 cell viability
Outline: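 Cells are plated at 3000/well and allowed 24 h before treatment. Test compound in medium containing 0.5% DMSO is then added, with DMSO-only wells as negative control, and plates are incubated 72 h at 37 °C. ATP luminescence (CellTiter-Glo 2.0) is then fitted to four parameters to derive GI50.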

Compound | GI50 ([1]; 72 h) [nM] | GI50 ([2]; Homo sapiens, VCaP, 72 h) [nM] | GI50 ([3]; 72 h) [nM] | also measured
Cc1sc2c(c1C)C(c1ccc(N3C[C@H](F)C[C@@H](Nc4ncc(C(=O)N[C@H]5C(C)(C)[C@H](Oc6ccc(C#N)c(Cl)c6)C5(C)C)cn4)C3)cc1)=NC(Cc1ncco1)c1nnc(C)n1-2 (some centres unmarked) [Compound I-664] | < 500 | < 500 |  | 
Cc1sc2c(c1C)C(c1ccc(N3CC[C@H](Nc4ncc(C(=O)N[C@H]5C(C)(C)[C@H](Oc6ccc(C#N)c(Cl)c6)C5(C)C)cn4)C3)cc1)=N[C@@H](Cc1ncco1)c1nnc(C)n1-2 [Compound I-624] | < 500 |  | < 500 | 
Cc1sc2c(c1C)C(c1ccc(NCCC3CCN(c4ncc(C(=O)N[C@H]5C(C)(C)[C@H](Oc6ccc(C#N)c(Cl)c6)C5(C)C)cn4)CC3)cc1)=NC(Cc1ncco1)c1nnc(C)n1-2 (some centres unmarked) [Compound I-627] | < 500 |  | < 500 | 
Cc1sc2c(c1C)C(c1ccc(N3CC4(CCN(c5ncc(C(=O)N[C@H]6C(C)(C)[C@H](Oc7ccc(C#N)c(Cl)c7)C6(C)C)cn5)CC4)C3)cc1)=NC(Cc1ncco1)c1nnc(C)n1-2 (some centres unmarked) [Compound I-625] | > 3000 |  | < 500 | 
Cc1sc2c(c1C)C(c1ccc(N[C@H]3CCN(c4ncc(C(=O)N[C@H]5C(C)(C)[C@H](Oc6ccc(C#N)c(Cl)c6)C5(C)C)cn4)C[C@@H]3F)cc1)=NC(Cc1ncco1)c1nnc(C)n1-2 (some centres unmarked) [Compound I-630] | < 500 |  | < 500 | 
Cc1sc2c(c1C)C(c1ccc(NC3C[C@@H]4CCC[C@@H](C3)N4c3ncc(C(=O)N[C@H]4C(C)(C)[C@H](Oc5ccc(C#N)c(Cl)c5)C4(C)C)cn3)cc1)=N[C@@H](Cc1ncco1)c1nnc(C)n1-2 (some centres unmarked) [Compound I-629] |  |  |  | GI50 ([1]; 72 hours): > 3000 nM; GI50 ([3]; 72 hours): < 500 nM
Cc1sc2c(c1C)C(c1ccc(N3CCC4(CCCN(c5ncc(C(=O)N[C@H]6C(C)(C)[C@H](Oc7ccc(C#N)c(Cl)c7)C6(C)C)cn5)C4)C3)cc1)=N[C@@H](Cc1ncco1)c1nnc(C)n1-2 (some centres unmarked) [Compound I-632] | > 3000 |  | < 500 | 
Cc1sc2c(c1C)C(c1ccc(OC[C@@H]3CCCN(c4cnc(C(=O)N[C@H]5C(C)(C)[C@H](Oc6ccc(C#N)c(Cl)c6)C5(C)C)cn4)C3)cc1)=N[C@@H](C)c1nnc(C)n1-2 [Compound I-588] | > 3000 |  | < 500 | GI50 ([4]; Homo sapiens, T47D, 72 h): 500 to 1500 nM
Cc1sc2c(c1C)C(c1ccc(NCC3CC4(C3)CN(c3ncc(C(=O)N[C@H]5C(C)(C)[C@H](Oc6ccc(C#N)c(Cl)c6)C5(C)C)cn3)C4)cc1)=N[C@@H](Cc1ncco1)c1nnc(C)n1-2 [Compound I-660] | < 500 | < 500 |  | GI50 ([4]; Homo sapiens, T47D, 72 h): < 500 nM
Cc1sc2c(c1C)C(c1ccc(N3CC(N4CCN(c5ncc(C(=O)N[C@H]6C(C)(C)[C@H](Oc7ccc(C#N)c(Cl)c7)C6(C)C)cn5)CC4)C3)cc1)=NC(Cc1ncco1)c1nnc(C)n1-2 (some centres unmarked) [Compound I-628] |  |  | < 500 | GI50 ([1]; 72 hours): > 3000 nM
Cc1sc2c(c1C)C(c1ccc(N3CCC[C@@H](CNc4ncc(C(=O)N[C@H]5C(C)(C)[C@H](Oc6ccc(C#N)c(Cl)c6)C5(C)C)cn4)C3)cc1)=NC(Cc1ncco1)c1nnc(C)n1-2 (some centres unmarked) [Compound I-662] | 500 to 1500 | < 500 |  | 
Cc1sc2c(c1C)C(c1ccc(N[C@H]3CC[C@@H](Nc4ncc(C(=O)N[C@H]5C(C)(C)[C@H](Oc6ccc(C#N)c(Cl)c6)C5(C)C)cn4)CC3)cc1)=N[C@@H](Cc1ncco1)c1nnc(C)n1-2 [Compound I-623] | < 500 |  | < 500 | 
Cc1sc2c(c1C)C(c1ccc(N3CCC(C)(Nc4ncc(C(=O)N[C@H]5C(C)(C)[C@H](Oc6ccc(C#N)c(Cl)c6)C5(C)C)cn4)CC3)cc1)=N[C@@H](Cc1ncco1)c1nnc(C)n1-2 [Compound I-626] | > 3000 |  | < 500 | 
Cc1sc2c(c1C)C(c1ccc(CC(=O)NCCc3ncc(C(=O)N[C@H]4C(C)(C)[C@H](Oc5ccc(C#N)c(Cl)c5)C4(C)C)cn3)cc1)=N[C@@H](Cc1ncco1)c1nnc(C)n1-2 [Compound I-440] | > 3000 | 500 to 1500 |  | GI50 ([4]; Homo sapiens, T47D, 72 h): 1500 to 3000 nM
Cc1sc2c(c1C)C(c1ccc(NCCN3CCN(c4ncc(C(=O)N[C@H]5C(C)(C)[C@H](Oc6ccc(C#N)c(Cl)c6)C5(C)C)cn4)CC3)cc1)=NC(Cc1ncco1)c1nnc(C)n1-2 (some centres unmarked) [Compound I-661] | < 500 | < 500 |  | 
Cc1sc2c(c1C)C(c1ccc(N3C[C@H]4C[C@@H]3CN4c3ncc(C(=O)N[C@H]4C(C)(C)[C@H](Oc5ccc(C#N)c(Cl)c5)C4(C)C)cn3)cc1)=NC(Cc1ncco1)c1nnc(C)n1-2 (some centres unmarked) [Compound I-665] | < 500 | < 500 |  | 
Cc1sc2c(c1C)C(c1ccc(CC3CC(OC4CCN(c5ncc(C(=O)N[C@H]6C(C)(C)[C@H](Oc7ccc(C#N)c(Cl)c7)C6(C)C)cn5)CC4)C3)cc1)=N[C@@H](C)c1nnc(C)n1-2 (some centres unmarked) [Compound I-446] |  |  |  | GI50 ([1]; 72 hours): > 3000 nM; GI50 [2]: 1500 to 3000 nM; GI50 [4]: < 500 nM
Cc1sc2c(c1C)C(c1ccc(N3[C@@H]4CC[C@H]3C[C@@H](Nc3ncc(C(=O)N[C@H]5C(C)(C)[C@H](Oc6ccc(C#N)c(Cl)c6)C5(C)C)cn3)C4)cc1)=N[C@@H](Cc1ncco1)c1nnc(C)n1-2 [Compound I-631] |  |  |  | GI50 ([1]; 72 hours): > 3000 nM; GI50 ([3]; 72 hours): < 500 nM
Cc1sc2c(c1C)C(c1ccc(N[C@H]3CC[C@H](Nc4ncc(C(=O)N[C@H]5C(C)(C)[C@H](Oc6ccc(C#N)c(Cl)c6)C5(C)C)cn4)CC3)cc1)=N[C@@H](Cc1ncco1)c1nnc(C)n1-2 [Compound I-663] | < 500 | < 500 |  | 
Cc1sc2c(c1C)C(c1ccc(N[C@H]3CCN(c4ncc(C(=O)N[C@H]5C(C)(C)[C@H](Oc6ccc(C#N)c(Cl)c6)C5(C)C)cn4)C3)cc1)=NC(Cc1ncco1)c1nnc(C)n1-2 (some centres unmarked) [Compound I-622] | < 500 |  | < 500 | 
